Experimental data from ChEMBL document CHEMBL3046161, “Synthesis of potential antitubercular and antimicrobial s-triazine-based scaffolds via Suzuki cross-coupling reaction” (2013).
In brackets after ≈: the same amount, converted by molar mass.

Columns and labels:
Assay type in all cases: functional
Bacillus cereus [1] = assay: Antibacterial activity against Bacillus cereus MTCC 430 assessed as growth inhibition at 3.12 to 50 ug/mL after 24 hr by agar disk diffusion method
Aspergillus fumigatus [2] = assay: Antifungal activity against Aspergillus fumigatus MTCC 343 assessed as growth inhibition at 3.12 to 50 ug/mL after 24 hr by agar disk diffusion method
Aspergillus clavatus [3] = assay: Antifungal activity against Aspergillus clavatus MTCC 1323 assessed as growth inhibition at 3.12 to 50 ug/mL after 24 hr by agar disk diffusion method
Pseudomonas aeruginosa [4] = assay: Antibacterial activity against Pseudomonas aeruginosa MTCC 741 assessed as growth inhibition after 24 hr by agar streak dilution method; details: MTCC 741, 24 h
Aspergillus clavatus [5] = assay: Antifungal activity against Aspergillus clavatus MTCC 1323 assessed as growth inhibition after 48 hr by agar streak dilution method; details: MTCC 1323, 48 h
[6] = tested on: Mycobacterium tuberculosis; assay: Antimycobacterial activity against Mycobacterium tuberculosis H37Rv assessed as growth inhibition at MIC measured within 10 days by BACTEC MGIT method
Proteus vulgaris [7] = assay: Antibacterial activity against Proteus vulgaris MTCC 1771 assessed as growth inhibition after 24 hr by agar streak dilution method; details: MTCC 1771, 24 h
Klebsiella pneumoniae [8] = assay: Antibacterial activity against Klebsiella pneumoniae MTCC 109 assessed as growth inhibition at 3.12 to 50 ug/mL after 24 hr by agar disk diffusion method
Candida albicans [9] = assay: Antifungal activity against Candida albicans MTCC 183 assessed as growth inhibition at 3.12 to 50 ug/mL after 24 hr by agar disk diffusion method
[10] = tested on: Mycobacterium tuberculosis; assay: Antimycobacterial activity against Mycobacterium tuberculosis H37Rv assessed as growth inhibition measured within 10 days by BACTEC MGIT method; details: 240 h
Proteus vulgaris [11] = assay: Antibacterial activity against Proteus vulgaris MTCC 1771 assessed as growth inhibition at 3.12 to 50 ug/mL after 24 hr by agar disk diffusion method
Aspergillus niger [12] = assay: Antifungal activity against Aspergillus niger MTCC 282 assessed as growth inhibition at 3.12 to 50 ug/mL after 24 hr by agar disk diffusion method
Staphylococcus aureus [13] = assay: Antibacterial activity against Staphylococcus aureus MTCC 96 assessed as growth inhibition after 24 hr by agar streak dilution method; details: MTCC 96, 24 h
Aspergillus fumigatus [14] = assay: Antifungal activity against Aspergillus fumigatus MTCC 343 assessed as growth inhibition after 48 hr by agar streak dilution method; details: MTCC 343, 48 h
Salmonella typhi [15] = assay: Antibacterial activity against Salmonella enterica subsp. enterica serovar Typhi MTCC 733 assessed as growth inhibition at 3.12 to 50 ug/mL after 24 hr by agar disk diffusion method
Shigella flexneri [16] = assay: Antibacterial activity against Shigella flexneri MTCC 1457 assessed as growth inhibition at 3.12 to 50 ug/mL after 24 hr by agar disk diffusion method
Escherichia coli [17] = assay: Antibacterial activity against Escherichia coli MTCC 739 assessed as growth inhibition at 3.12 to 50 ug/mL after 24 hr by agar disk diffusion method
Klebsiella pneumoniae [18] = assay: Antibacterial activity against Klebsiella pneumoniae MTCC 109 assessed as growth inhibition after 24 hr by agar streak dilution method; details: MTCC 109, 24 h
Escherichia coli [19] = assay: Antibacterial activity against Escherichia coli MTCC 739 assessed as growth inhibition after 24 hr by agar streak dilution method; details: MTCC 739, 24 h
Bacillus cereus [20] = assay: Antibacterial activity against Bacillus cereus MTCC 430 assessed as growth inhibition after 24 hr by agar streak dilution method; details: MTCC 430, 24 h
Salmonella typhi [21] = assay: Antibacterial activity against Salmonella enterica subsp. enterica serovar Typhi MTCC 733 assessed as growth inhibition after 24 hr by agar streak dilution method; details: MTCC 733, 24 h
Staphylococcus aureus [22] = assay: Antibacterial activity against Staphylococcus aureus MTCC 96 assessed as growth inhibition at 3.12 to 50 ug/mL after 24 hr by agar disk diffusion method
[23] = tested on: Mycobacterium tuberculosis; assay: Antimycobacterial activity against Mycobacterium tuberculosis H37Rv assessed as growth inhibition at MIC after 12 to 28 days by Lowenstein and Jensen agar dilution method
Shigella flexneri [24] = assay: Antibacterial activity against Shigella flexneri MTCC 1457 assessed as growth inhibition after 24 hr by agar streak dilution method; details: MTCC 1457, 24 h
[25] = tested on: Mycobacterium tuberculosis; assay: Antimycobacterial activity against Mycobacterium tuberculosis H37Rv assessed as growth inhibition after 12 to 28 days by Lowenstein and Jensen agar dilution method
Pseudomonas aeruginosa [26] = assay: Antibacterial activity against Pseudomonas aeruginosa MTCC 741 assessed as growth inhibition at 3.12 to 50 ug/mL after 24 hr by agar disk diffusion method
Aspergillus niger [27] = assay: Antifungal activity against Aspergillus niger MTCC 282 assessed as growth inhibition after 48 hr by agar streak dilution method; details: MTCC 282, 48 h
Candida albicans [28] = assay: Antifungal activity against Candida albicans MTCC 183 assessed as growth inhibition after 48 hr by agar streak dilution method; details: MTCC 183, 48 h

| SMILES | inhibition zone (IZ) (Bacillus cereus [1]) [mm] | inhibition zone (IZ) (Aspergillus fumigatus [2]) [mm] | inhibition zone (IZ) (Aspergillus clavatus [3]) [mm] | MIC (Pseudomonas aeruginosa [4]) [µg/mL] | MIC (Aspergillus clavatus [5]) [µg/mL] | MIC (Proteus vulgaris [7]) [µg/mL] | inhibition zone (IZ) (Klebsiella pneumoniae [8]) [mm] | inhibition zone (IZ) (Candida albicans [9]) [mm] | MIC [10] [µg/mL] | inhibition zone (IZ) (Proteus vulgaris [11]) [mm] | inhibition zone (IZ) (Aspergillus niger [12]) [mm] | MIC (Staphylococcus aureus [13]) [µg/mL] | MIC (Aspergillus fumigatus [14]) [µg/mL] | inhibition zone (IZ) (Salmonella typhi [15]) [mm] | inhibition zone (IZ) (Shigella flexneri [16]) [mm] | inhibition zone (IZ) (Escherichia coli [17]) [mm] | MIC (Klebsiella pneumoniae [18]) [µg/mL] | MIC (Escherichia coli [19]) [µg/mL] | MIC (Bacillus cereus [20]) [µg/mL] | MIC (Salmonella typhi [21]) [µg/mL] | also measured |
| --- | --- | --- | --- | --- | --- | --- | --- | --- | --- | --- | --- | --- | --- | --- | --- | --- | --- | --- | --- | --- | --- |
| CCOc1ccc2nc(NC(=O)CNc3ccc(-c4nc(N5CC(C)CC(C)C5)nc(N5CC(C)CC(C)C5)n4)cc3)sc2c1 (stereo not given) | 24 | 16 | 16 | 12.5 (≈ 19.9 µM) | 50 (≈ 79.5 µM) | 12.5 (≈ 19.9 µM) | 24 | 25 | 6.25 (≈ 9.94 µM) | 26 | 20 | 6.25 (≈ 9.94 µM) | 50 (≈ 79.5 µM) | 19 | 17 | 23 | 50 (≈ 79.5 µM) | 12.5 (≈ 19.9 µM) | 25 (≈ 39.8 µM) | 50 (≈ 79.5 µM) | growth inhibition (GI) [6]: 99%; inhibition zone (IZ) (Staphylococcus aureus [22]): 23 mm; growth inhibition (GI) [23]: 99%; MIC (Shigella flexneri [24]): 50 µg/mL (≈ 79.5 µM); MIC [25]: 6.25 µg/mL (≈ 9.94 µM); inhibition zone (IZ) (Pseudomonas aeruginosa [26]): 23 mm; MIC (Aspergillus niger [27]): 25 µg/mL (≈ 39.8 µM); MIC (Candida albicans [28]): 12.5 µg/mL (≈ 19.9 µM) |
| CC1CC(C)CN(c2nc(-c3ccc(NCC(=O)Nc4nc5ccc(F)cc5s4)cc3)nc(N3CC(C)CC(C)C3)n2)C1 (stereo not given) | 28 | 25 | 25 | 25 (≈ 41.5 µM) | 50 (≈ 82.9 µM) | 25 (≈ 41.5 µM) | 25 | 23 | 6.25 (≈ 10.4 µM) | 25 | 22 | 3.12 (≈ 5.18 µM) | 25 (≈ 41.5 µM) | 23 | 26 | 20 | 25 (≈ 41.5 µM) | 25 (≈ 41.5 µM) | 3.12 (≈ 5.18 µM) | 12.5 (≈ 20.7 µM) | growth inhibition (GI) [6]: 99%; inhibition zone (IZ) (Staphylococcus aureus [22]): 25 mm; growth inhibition (GI) [23]: 99%; MIC (Shigella flexneri [24]): 6.25 µg/mL (≈ 10.4 µM); MIC [25]: 3.12 µg/mL (≈ 5.18 µM); inhibition zone (IZ) (Pseudomonas aeruginosa [26]): 25 mm; MIC (Aspergillus niger [27]): 12.5 µg/mL (≈ 20.7 µM); MIC (Candida albicans [28]): 50 µg/mL (≈ 82.9 µM) |
| CC1CC(C)CN(c2nc(-c3ccc(NCC(=O)Nc4ccccc4)cc3)nc(N3CC(C)CC(C)C3)n2)C1 (stereo not given) | 12 | <10 | <10 | 50 (≈ 94.7 µM) | > 50 | 50 (≈ 94.7 µM) | <10 | <10 | > 6.25 | 14 | <10 | 50 (≈ 94.7 µM) | 50 (≈ 94.7 µM) | <10 | <10 | <10 | 50 (≈ 94.7 µM) | 50 (≈ 94.7 µM) | 50 (≈ 94.7 µM) | 50 (≈ 94.7 µM) | inhibition zone (IZ) (Staphylococcus aureus [22]): 11 mm; growth inhibition (GI) [23]: 95%; MIC (Shigella flexneri [24]): 50 µg/mL (≈ 94.7 µM); MIC [25]: 250 µg/mL (≈ 474 µM); inhibition zone (IZ) (Pseudomonas aeruginosa [26]): 19 mm; MIC (Aspergillus niger [27]): 50 µg/mL (≈ 94.7 µM); MIC (Candida albicans [28]): > 50 µg/mL |
| CC1CC(C)CN(c2nc(-c3ccc(NCC(=O)Nc4ccc(Cl)cc4)cc3)nc(N3CC(C)CC(C)C3)n2)C1 (stereo not given) | 13 | 14 | <10 | 25 (≈ 44.5 µM) | > 50 | 50 (≈ 88.9 µM) | 21 | <10 | > 6.25 | 21 | <10 | 25 (≈ 44.5 µM) | 50 (≈ 88.9 µM) | 18 | 24 | 12 | 50 (≈ 88.9 µM) | 50 (≈ 88.9 µM) | 50 (≈ 88.9 µM) | 50 (≈ 88.9 µM) | inhibition zone (IZ) (Staphylococcus aureus [22]): 18 mm; growth inhibition (GI) [23]: 98%; MIC (Shigella flexneri [24]): 12.5 µg/mL (≈ 22.2 µM); MIC [25]: 25 µg/mL (≈ 44.5 µM); inhibition zone (IZ) (Pseudomonas aeruginosa [26]): 26 mm; MIC (Aspergillus niger [27]): 50 µg/mL (≈ 88.9 µM); MIC (Candida albicans [28]): > 50 µg/mL |
